From ChEMBL document CHEMBL6074620, “Discovery of a triphenylamine-based ligand that targets mitochondrial DNA G-quadruplexes and activates the cGAS-STING immunomodulatory pathway” (Eur J Med Chem, 2024)
The source made the active and inactive calls.

Experiments:
[1] = system: 4T1; assay: Induction of mitochondrial damage in mouse 4T1 cells assessed as decrease in ND4 level at 5 uM in presence of DDC by qPCR analysis; type: functional, cell-based
[2] = system: 4T1; assay: Activation of cGAS-STING signaling pathway in mouse 4T1 cells assessed as increase in ISG54 level at 5 uM by qPCR analysis; type: cell-based; conditions: filed as activator
[3] = system: 4T1; assay: Antitumor activity against mouse 4T1 cells implanted with female BALB/c mouse assessed as effect on caspase-3 level in tumor at 2.5 mg/kg, sc measured for 21 days; type: functional, organism-based; conditions: time 21.0 day
[4] = system: 4T1; assay: Induction of mitochondrial damage in mouse 4T1 cells assessed as decrease in CytB level at 5 uM in presence of DDC by qPCR analysis; type: functional, cell-based
[5] = system: Quadruplex DNA; assay: Binding affinity to G4-quadruplex mt6363 DNA (unknown origin) at 10 uM by fluorescence based analysis; type: nucleic-acid assay
[6] = system: Mus musculus; assay: Immunostimulatory activity in female BALB/c mouse implanted with mouse 4T1 cells assessed as change in CD8+ T cells in spleen at 2.5 mg/kg, sc by flow cytometry; type: functional, organism-based
[7] = system: 4T1; assay: Induction of mouse 4T1 cell maturation assessed as increase in CD80 positive cells by flow cytometric analysis; type: functional, cell-based; conditions: dose <= 5.0 µM
[8] = Toxicity in female BALB/c mouse implanted with mouse 4T1 cells assessed as change in lungs weight at 2.5 mg/kg, sc measured after 21 days by Hematoxylin-Eosin staining based analysis; type: organism-based; conditions: in vivo, 504 h, time 21 day
[9] = system: 4T1; assay: Induction of mitochondrial damage in mouse 4T1 cells assessed as decrease in Dloop2 level at 5 uM in presence of NAC by qPCR analysis; type: functional, cell-based
[10] = target: Quadruplex DNA; assay: Binding affinity to 3-terminal mt6363 DNA (unknown origin) assessed as dissociation constant by TAMRA-labeled G4 quenching assay; type: nucleic-acid assay
[11] = system: 4T1; assay: Induction of apoptosis in mouse 4T1 cells assessed as decrease in PARP level at 5 uM by Western blotting analysis; type: functional, cell-based
[12] = system: 4T1; assay: Induction of apoptosis in mouse 4T1 cells at 5 uM by Annexin V/PI staining based flow cytometry analysis; type: functional, cell-based
[13] = system: 4T1; assay: Induction of mitochondrial damage DNA in mouse 4T1 cells assessed as reduction in mtDNA by qPCR analysis; type: functional, cell-based
[14] = system: 4T1; assay: Induction of mitochondrial damage in mouse 4T1 cells assessed as increase in CytB level by qPCR analysis; type: functional, cell-based
[15] = Cytotoxicity against human MCF-10A assessed as cell growth inhibition incubated for 24 hrs by CCK-8 assay; type: toxicity, cell-based; conditions: MCF-10A cells
[16] = system: 4T1; assay: Antitumor activity against mouse 4T1 cells implanted with female BALB/c mouse assessed as suppression in lung metastasis at 2.5 mg/kg, iv administered every 3 days for 2 weeks from day 7; type: functional, organism-based
[17] = system: MDA-MB-231; assay: Cytotoxicity against human MDA-MB-231 cells assessed as reduction in cell viability incubated for 24 hrs by CCK-8 assay; type: functional, cell-based; conditions: MDA-MB-231, 24 h
[18] = system: 4T1; assay: Activation of cGAS-STING signaling pathway in mouse 4T1 cells assessed as increase in IFN-beta level up to 5 uM by ELISA analysis; type: cell-based; conditions: filed as activator
[19] = system: Mitochondrial membrane; assay: Disruption of mitochondrial membrane potential in mouse 4T1 cells assessed as decrease red fluorescence at 0 to 5 uM by JC-1 staining based analysis; conditions: dose 0-5 µM
[20] = system: Mus musculus; assay: In-vivo activation of cGAS-STING signaling pathway in female BALB/c mouse assessed as increase in TNF-alpha level at 2.5 mg/kg, sc by ELISA analysis; type: functional, organism-based
[21] = system: 4T1; assay: Induction of mitochondrial damage in mouse 4T1 cells assessed as disappearance of picogreen incubated for 1 hrs and measured after 24 hrs by immunofluorescence analysis; type: functional, cell-based; conditions: time 25.0 hrs
[22] = system: 4T1; assay: Cytotoxicity against mouse 4T1 cells assessed as reduction in cell viability incubated for 24 hrs by CCK-8 assay; type: functional, cell-based; conditions: 4T1, 24 h
[23] = Toxicity in female BALB/c mouse implanted with mouse 4T1 cells assessed as body weight loss at 2.5 mg/kg, sc measured every other day for 21 days; type: organism-based; conditions: in vivo, 504 h, time 21 day
[24] = Toxicity in female BALB/c mouse implanted with mouse 4T1 cells assessed as change in kidney weight at 2.5 mg/kg, sc measured after 21 days by Hematoxylin-Eosin staining based analysis; type: organism-based; conditions: in vivo, 504 h, time 21 day
[25] = Toxicity in female BALB/c mouse implanted with mouse 4T1 cells assessed as change in heart weight at 2.5 mg/kg, sc measured after 21 days by Hematoxylin-Eosin staining based analysis; type: organism-based; conditions: in vivo, 504 h, time 21 day
[26] = system: 4T1; assay: Activation of cGAS-STING signaling pathway in mouse 4T1 cells assessed as increase in TNF-alpha level up to 5 uM by ELISA analysis; type: cell-based; conditions: filed as activator
[27] = Toxicity in female BALB/c mouse implanted with mouse 4T1 cells assessed as change in body weight at 2.5 mg/kg, iv administered every 3 days for 2 weeks from day 7; type: organism-based; conditions: in vivo, 336 h
[28] = system: Mus musculus; assay: Immunostimulatory activity in female BALB/c mouse implanted with mouse 4T1 cells assessed as downregulation of M2 macrophages level 2.5 mg/kg, sc by flow cytometry analysis; type: functional, organism-based
[29] = system: 4T1; assay: Induction of mouse 4T1 cell maturation assessed as increase in CD86 positive cells by flow cytometric analysis; type: functional, cell-based; conditions: dose <= 5.0 µM
[30] = Toxicity in female BALB/c mouse implanted with mouse 4T1 cells assessed as change in liver weight at 2.5 mg/kg, sc measured after 21 days by Hematoxylin-Eosin staining based analysis; type: organism-based; conditions: in vivo, 504 h, time 21 day
[31] = system: Mus musculus; assay: Immunostimulatory activity in female BALB/c mouse implanted with mouse 4T1 cells assessed as change in CD4+ T cells in spleen 2.5 mg/kg, sc by flow cytometry; type: functional, organism-based
[32] = system: 4T1; assay: Induction of mitochondrial damage in mouse 4T1 cells assessed as increase in Dloop2 level by qPCR analysis; type: functional, cell-based
[33] = system: Mus musculus; assay: Immunostimulatory activity in female BALB/c mouse implanted with mouse 4T1 cells assessed as increase in CD8+ T cells in spleen 2.5 mg/kg, iv by flow cytometry; type: functional, organism-based

COc1ccc(N(c2ccc(/C=C/C3=[N+](C)c4ccc5ccccc5c4C3(C)C)cc2)c2ccc(OC)cc2)cc1.[I-]
1900 nM: Kd [10] | IC50 [22]
1800 nM: IC50 [17]
Non-toxic: Activity [8] | Activity [23] | Activity [24] | Activity [25] | Activity [27] | Activity [30]
9.6 µM: IC50 at 24 h [15]
active: Activity [1] | Activity [2] | Activity [3] | Activity [4] | Activity [5] | Activity [6] | Activity [7] Dose-dependent-effect | Activity [9] | Activity [11] | Activity [12] | Activity [13] | Activity [14] | Activity [16] | Activity [18] | Activity [19] | Activity [20] | Activity [21] | Activity [26] | Activity [28] | Activity [29] Dose-dependent-effect | Activity [31] | Activity [32] | Activity [33]
